Assay results published in patent publication US9434724B2, “Quinuclidines for modulating alpha 7 activity” (priority 2014, dated 2016).

What was measured:
Assay type in all cases: in vitro ADME
[1] = Metabolic stability assay in human liver microsomes (HLM); details: 1 μM
Method in brief: (§1)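 In Protocol 1, compound was 1 μM final with NADPH at 37 °C, sampled at 0–45 min. In Protocol 2, 1.5 μM compound with 0.75 mg/mL microsomes (pre-NADPH mix) in 0.1 M potassium phosphate, 1 mM EDTA, pH 7.4 was pre-incubated 10 min, then NADPH started the reaction. Both: LC-MS/MS % remaining versus time 0, half-life from single-phase exponential fit.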

[2] = Metabolic stability assay in rat liver microsomes (RLM); details: 1 μM
Method in brief: as §1

[3] = Human plasma stability; details: plasma; for % Remaining @ 2 h: 5 μM
Method in brief: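 Protocol 1: 1 μM compound in pH 7.4 sodium-heparin human plasma at 37° C, sampled 0–120 min. Protocol 2: 5 μM in plasma at pH 7.4–8.0, 37° C, duplicates, sampled 0–120 min. Both: LC-MS/MS percent remaining versus t0; half-life from single-phase exponential decay.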

SMILES | HLM ([1]; human, microsomes) [mL/min/kg] | RLM ([2]; rat, microsomes) [mL/min/kg] | % Remaining @ 2 h ([3]; human, 2 h) [%] | HLM ([1]; Protocol No. 1, human liver microsomes) [mL/min/kg] | RLM ([2]; Protocol No. 1, rat liver microsomes) [mL/min/kg] | % Remaining @ 2 h ([3]; Protocol No. 2, 37° C.) [%] | T1/2 ([3]; human)
O=C(OCC12CCN(CC1)CC2)c1c[nH]c2cc(O)cc(Cl)c12 [Compound 46, quinuclidin-4-ylmethyl 4-chloro-6-hydroxy-1H-indole-3-carboxylate] | 7.385 | 32.4827 | 91.9 | – | – | – | –
Cc1cc(Cl)c2c(C(=O)OCC34CCN(CC3)CC4)c[nH]c2c1.Cl [Compound 65, quinuclidin-4-ylmethyl 4-chloro-6-methyl-1H-indole-3-carboxylate hydrochloride] | – | – | – | 2.253 | 286.666 | 72.66 | –
COc1c(OCC(F)(F)F)ccc2[nH]cc(C(=O)OCC34CCN(CC3)CC4)c12 [Compound 88, quinuclidin-4-ylmethyl 4-methoxy-5-(2,2,2-trifluoroethoxy)-1H-indole-3-carboxylate] | 3.31 | 25.96 | 110.47 | – | – | – | ∞
